# Read-outs that look alike come from different tables or passages of the source. Marks after values point to notes of the source that are not given here.
# Experiments:
# MRSA = assay: Minimum bactericidal concentration (MBC) with and without white light; format: cell-based, S. aureus; settings: Staphylococcus aureus, light or radiation study
# Procedure: The bacterial media was inoculated with bacteria and incubated overnight. The bacterial cultures were diluted to 5×10^8 CFU/mL using a McFarland latex turbidity standard (0.5). Compound 1 was diluted with sterile DMSO, which was added to the cell suspension in glass culture tubes. The cells were then incubated for 30 minutes at 37° C. on a rotary shaking incubator at 150 rpm. 500 μL of the treated cell suspension was added to a well on a sterile ceramic drop plate. Non-coherent white light from a Lumacare™ LC-122 unit was used to irradiate the samples. The end of the light probe was placed 3 cm above the sample well, perpendicular to the surface of the sample, and light was applied for 2 minutes (15 seconds light, 15 seconds dark). 200 μL of the irradiated sample was transferred to a 96-well plastic microtiter plate and five ten-fold dilutions were made in the media. 10 μL of each dilution was dripped onto an agar media plate and was allowed to streak down the plate by tilting the plate down. The agar plates were incubated at 37° C. overnight and colony counts were performed to calculate the CFU/mL.
# TABLE 14 details the MBC values of compounds 1-6 against MRSA with and without irradiation with white light. Irradiation involved treatment with a LumaCare™ light source at 3 cm from media for 1 min.
# HeLa cells = assay: Toxicity (IC50) on HeLa cells; format: cell-based, human; settings: cancerous cervical epithelium HeLa cells; for IC50: Homo sapiens
# Procedure: The toxicities of the compounds of the invention were determined for human cancerous cervical epithelium HeLa and normal lung fibroblast WI38 cells. The toxicities of EPIs INF-55 and INF-55Cl were quantified as controls. […] TABLE 2 compares the toxicity of compounds 7-11 on HeLa cells and normal WI38 cells.
# S. aureus (ATCC 29213) = assay: MIC against drug sensitive S. aureus; format: cell-based; settings: Staphylococcus aureus
# VRE = assay: MIC against VRE; format: cell-based, Enterococcus faecalis
# Procedure: In a 12×75 mm borosilicate glass culture tube, 1 mL of cell suspension was added. Then, compound 7 was added to the cells, and the samples were mixed using a vortex mixer. […] The samples were incubated overnight at 37° C. on a rotary shaking incubator at 100 rpm.
# [1] = MIC against MRSA isolates; format: cell-based, S. aureus; settings: Staphylococcus aureus
# Procedure: (§1) The MICs of S. aureus ATCC 33591, BAA-44, BAA-1707, BAA-1717, BAA-1720, BAA-1747, BAA-1754, BAA-1761, BAA-1763, BAA-1764, and BAA-1766 were measured using a cell concentration of about 5×10^5 colony forming units (CFU)/mL. In a 96-well microtiter plate, two-fold dilutions were made of each drug (starting with 100 μM) in 100 μL of a cell suspension in trypticase soy broth (TSB). The samples were incubated overnight at 37° C. on a rotary shaking incubator set at 100 revolutions per minute (rpm) and were visually inspected for turbidity. A 20% well-volume of 3-(4,5-dimethylthiazol-2-yl)-2,5-diphenyltetrazolium bromide (MTT reagent, 5 mg/mL) was added, and the samples were incubated for about 20 minutes. The MICs were determined as the lowest concentration at which full visual inhibition was observed by the unaided eye.
# [2] = test system: MRSA isolates (S. aureus ATCC 33591, BAA-44, BAA-1707, BAA-1717, BAA-1720, BAA-1747, BAA-1754, BAA-1761, BAA-1763, BAA-1764, BAA-1766); assay: MIC against MRSA isolates; format: cell-based
# Procedure: as §1
# [3] = 1 min, LumaCare light source at 3 cm from media for 1 min, read-out: MBC with irradiation
# [4] = no irradiation, read-out: MBC in the dark
# [5] = ATCC29213, ATCC 29213, read-out: S. aureus MIC
# [6] = Enterococcus, TABLE 23, read-out: VRE MIC
# [7] = MRSA (ATCC BAA-44), TABLE 21, read-out: MRSA MIC
# [8] = antibiotics, MRSA isolate ATCC BAA-44
# [9] = antibiotics, MRSA isolate ATCC BAA-1717
# [10] = Enterococcus, common antibiotics, TABLE 24, read-out: MIC
# [11] = antibiotics, MRSA isolate ATCC 33591
# [12] = antibiotics, MRSA isolate ATCC BAA-1707
# [13] = antibiotics, MRSA isolate ATCC BAA-1720
# [14] = antibiotics, MRSA isolate ATCC BAA-1747
# [15] = antibiotics, MRSA isolate ATCC BAA-1754
# [16] = antibiotics, MRSA isolate ATCC BAA-1761
# [17] = antibiotics, MRSA isolate ATCC BAA-1763
# [18] = antibiotics, MRSA isolate ATCC BAA-1764
# [19] = antibiotics, MRSA isolate ATCC BAA-1766
molecule,measurement,setting,value
C(=C\c1[nH]c2ccccc2c1/C=C/c1ccccc1)/c1ccccc1 [Compound 2],MBC,MRSA; [3],0.5 µM
same,MBC,MRSA; [4],100 µM
COc1ccc(/C=C/c2[nH]c3ccccc3c2/C=C/c2ccc(OC)cc2)cc1 [Compound 3],MBC,MRSA; [3],0.5 µM
same,MBC,MRSA; [4],200 µM
Clc1ccccc1/C=C/c1[nH]c2ccccc2c1/C=C/c1ccccc1Cl [Compound 5],MBC,MRSA; [3],0.5 µM
same,MBC,MRSA; [4],200 µM
Clc1cccc(/C=C/c2[nH]c3ccccc3c2/C=C/c2cccc(Cl)c2)c1 [Compound 6],MBC,MRSA; [3],1 µM
same,MBC,MRSA; [4],200 µM
Clc1ccc(-c2cc3[nH]c4ccccc4c3cc2-c2ccc(Cl)cc2)cc1 [Compound 13],IC50,HeLa cells,16.4 ± 1.1 µM
Clc1ccc(Sc2c(-c3ccc(Br)cc3)[nH]c3ccccc23)cc1 [Compound 14],IC50,HeLa cells,12.2 ± 1.6 µM
Clc1ccc(-c2cc3ccccc3[nH]2)cc1 [Compound 15],IC50 HeLa,HeLa cells,Non-Toxic
Clc1ccc(Sc2c(-c3ccc(Cl)cc3)[nH]c3ccccc23)cc1 [Compound 16],IC50,HeLa cells,6.4 ± 1 µM
O=S(=O)(c1ccc(Cl)cc1)c1c(-c2ccc(Cl)cc2)[nH]c2ccccc12 [Compound 18],IC50,HeLa cells,14.3 ± 0.7 µM
O=C(c1ccc(Cl)cc1)c1c(-c2ccc(Cl)cc2)[nH]c2ccccc12 [Compound 19],IC50,HeLa cells,35.8 ± 6 µM
O=[N+]([O-])c1ccc2[nH]c(-c3ccc(Cl)cc3)cc2c1 [Compound 20],IC50 HeLa,HeLa cells,Non-Toxic
Clc1ccc(Sc2c(-c3ccc(Cl)cc3)[nH]c3ccc(Cl)cc23)cc1 [Compound 21],IC50,HeLa cells,8.2 ± 1 µM
Clc1ccc(Oc2c(-c3ccc(Cl)cc3)[nH]c3ccc(Br)cc23)cc1 [Compound 22],IC50,HeLa cells,3.2 ± 0.4 µM
Fc1ccc2[nH]c(-c3ccc(Cl)cc3)c(Oc3ccc(Cl)cc3)c2c1 [Compound 23],IC50,HeLa cells,12.9 ± 3.2 µM
COc1ccc2[nH]c(-c3ccc(Cl)cc3)c(Oc3ccc(Cl)cc3)c2c1 [Compound 24],IC50,HeLa cells,23.9 ± 1.8 µM
Fc1cccc2c(Oc3ccc(Cl)cc3)c(-c3ccc(Cl)cc3)[nH]c12 [Compound 25],IC50,HeLa cells,13 ± 3.5 µM
CCOC(=O)c1ccc2[nH]c(-c3ccc(Cl)cc3)c(Oc3ccc(Cl)cc3)c2c1 [Compound 26],IC50,HeLa cells,18.6 ± 1.1 µM
Clc1ccc(/N=N/c2c(-c3ccc(Br)cc3)[nH]c3ccccc23)cc1 [Compound 27],IC50,HeLa cells,12.5 ± 0.2 µM
Brc1ccc(/N=N/c2c(-c3ccc(Br)cc3)[nH]c3ccccc23)cc1 [Compound 28],IC50,HeLa cells,8.6 ± 1.4 µM
Fc1ccc(/N=N/c2c(-c3ccc(F)cc3)[nH]c3ccccc23)cc1 [Compound 29],IC50,HeLa cells,11.6 ± 0.7 µM
COC(=O)n1c(Br)c(Br)c2ccccc21 [Compound 31],IC50 HeLa,HeLa cells,Non-Toxic
"Cc1onc(-c2c(Cl)cccc2Cl)c1C(=O)N[C@@H]1C(=O)N2[C@@H]1SC(C)(C)[C@@H]2C(=O)O [Dicloxicillin, reference compound]",MIC,S. aureus (ATCC 29213); [5],50 to 100 µg/mL
same,MIC,VRE; [6],4 µg/mL
"C[C@H]1c2cccc(O)c2C(=O)C2=C(O)[C@]3(O)C(=O)C(C(N)=O)=C(O)[C@@H](N(C)C)[C@@H]3[C@@H](O)[C@@H]21 [Doxycycline, reference compound]",MIC,S. aureus (ATCC 29213); [5],3.12 µg/mL
same,MIC,[1]; [7],3.12 µg/mL
same,MIC,VRE; [6],0.25 to 0.5 µg/mL
"CC[C@H]1OC(=O)[C@H](C)[C@@H](O[C@H]2C[C@@](C)(OC)[C@@H](O)[C@H](C)O2)[C@H](C)[C@@H](O[C@@H]2O[C@H](C)C[C@H](N(C)C)[C@H]2O)[C@](C)(O)C[C@@H](C)C(=O)[C@H](C)[C@@H](O)[C@]1(C)O [Erythromycin, reference compound]",MIC,[1]; [8],> 1000 µg/mL
same,MIC,[1]; [9],30 µg/mL
same,MIC,VRE; [10],> 32 µg/mL
same,S/R,VRE; TABLE 24,R
"O=[N+]([O-])c1ccc2[nH]c(-c3ccccc3)cc2c1 [INF-55, reference compound]",IC50 HeLa,HeLa cells,Non-Toxic
CC1(C)S[C@@H]2[C@H](NC(=O)Cc3ccccc3)C(=O)N2[C@H]1C(=O)O [Penicillin G],S/R,VRE; TABLE 24,S
same,MIC,"VRE; common antibiotics, TABLE 24",2 µg/mL
CN(C)[C@@H]1C(O)=C(C(N)=O)C(=O)[C@@]2(O)C(O)=C3C(=O)c4c(O)cccc4[C@@](C)(O)[C@H]3C[C@@H]12 [Tetracycline],MIC,VRE; [10],< 0.5 µg/mL
same,S/R,VRE; TABLE 24,S
"NC[C@H]1O[C@H](O[C@H]2[C@H](O)[C@@H](O[C@H]3O[C@H](CO)[C@@H](O)[C@H](N)[C@H]3O)[C@H](N)C[C@@H]2N)[C@H](N)C[C@@H]1O [Tobramycin, reference compound]",MIC,S. aureus (ATCC 29213); [5],0.25 µg/mL
same,MIC,[1]; [7],> 5000 µg/mL
same,MIC,VRE; [6],> 200 µg/mL
"CN[C@H](CC(C)C)C(=O)N[C@H]1C(=O)N[C@@H](CC(N)=O)C(=O)N[C@H]2C(=O)N[C@H]3C(=O)N[C@H](C(=O)N[C@H](C(=O)O)c4cc(O)cc(O)c4-c4cc3ccc4O)[C@H](O)c3ccc(c(Cl)c3)Oc3cc2cc(c3O[C@@H]2O[C@H](CO)[C@@H](O)[C@H](O)[C@H]2O[C@H]2C[C@](C)(N)[C@H](O)[C@H](C)O2)Oc2ccc(cc2Cl)[C@H]1O [Vancomycin, reference compound]",MIC,"S. aureus (ATCC 29213); ATCC29213, read-out: S. aureus MIC",2 µg/mL
same,MIC,[1]; [11],< 3.1 µg/mL
same,MIC,[1]; [8],3.1 µg/mL
same,MIC,[1]; [12],< 3.1 µg/mL
same,MIC,[1]; [9],< 1.6 µg/mL
same,MIC,[1]; [13],< 3.1 µg/mL
same,MIC,[1]; [14],< 3.1 µg/mL
same,MIC,[1]; [15],< 3.1 µg/mL
same,MIC,[1]; [16],< 3.1 µg/mL
same,MIC,[1]; [17],< 3.1 µg/mL
same,MIC,[1]; [18],< 3.1 µg/mL
same,MIC,[1]; [19],< 3.1 µg/mL
same,MIC,"[1]; read-out: MRSA MIC, MRSA (ATCC BAA-44), TABLE 21",3.12 µg/mL
same,MIC,VRE; Enterococcus,64 µg/mL
same,MIC,"VRE; Enterococcus, read-out: VRE MIC",> 40 µg/mL
same,S/R,VRE; TABLE 24,R
Gentamycin [reference compound],MIC,[2]; [11],>100* μg/mL
same,MIC,[2]; [8],>200* μg/mL
same,MIC,[2]; [12],<3.1 µg/mL
same,MIC,[2]; [9],3.1 µg/mL
same,MIC,[2]; [13],<3.1 µg/mL
same,MIC,[2]; [14],6.3 µg/mL
same,MIC,[2]; [15],<3.1 µg/mL
same,MIC,[2]; [16],<3.1 µg/mL
same,MIC,[2]; [17],3 to 6 µg/mL
same,MIC,[2]; [18],<3.1 µg/mL
same,MIC,[2]; [19],12.5* μg/mL
INF-55Cl [reference compound],IC50 HeLa,HeLa cells,Non-Toxic
Penicillin [reference compound],MIC,"[2]; Penicillin, MRSA isolate ATCC BAA-44",1.6* mg/mL
same,MIC,"[2]; Penicillin, MRSA isolate ATCC BAA-1717",1* mg/mL
